Data taken from patent US20190175744A1, “INSULIN-INCRETIN CONJUGATES” (Merck Sharp & Dohme Corp., priority 2016, published 2019).
pEC50: −log10 of the molar value. Read-outs that look alike come from different tables or passages of the source.

What was measured:
human GLP1R = human GLP1R (Homo sapiens, UniProt P43220); experiment: cAMP activity assay, cells expressing human GLP1R; assay type: cell-based
Experimental: (§1) Activity of the incretin peptides or the conjugates at the Glucagon receptor (GCGR) and GLP-1 receptor (GLP1R) may be measured in a cAMP activity assay as follows.
(§2) Peptides are dissolved in 100% DMSO and serially diluted to generate 10 point titrations. The peptide solutions are then transferred into 384-well assay plates (150 nL/well). Assay ready frozen cells expressing human GLP1R or human GCGR are suspended in growth media consisting of DMEM medium (GIBCO), 10% FBS (GIBCO), 1×NEAA(GIBCO), 1×P/S (GIBCO), 10 μg/mL Blasticidin (GIBCO) and 200 μg/mL Hygromycin (GIBCO). […] The cell suspensions (15 μL) are then added to the assay plates containing the peptide solutions (30,000 cells/well for human GCGR; 10,000 cells/well for human GLP1R). The cells are incubated for one hour at room temperature in the dark.
(§3) Production of cAMP may be determined using HitHunterr cAMPXS kits (DiscoverX) following the manufacturer's protocol. The plates are incubated for overnight at room temperature in the dark. Luminescence may be measured using an EnVision Multilabel plate reader (Perkin Elmer). Native GLP-1 and Glucagon (Bachem) may be used as control peptides. EC50 values may be calculated using uses a 4 parameter logistic fit based on the Levenberg-Marquardt algorithm.

human GCGR = molecular target: T1, human GCGR (Homo sapiens, UniProt P47871); experiment: cAMP activity assay, cells expressing human GCGR; assay type: cell-based; conditions: for GCGR/GLP1R ratio: Table 5, ratio of hGCGR EC50 to hGLP1R EC50;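 as to all read-outs here: cAMP production read by luminescence after one hour of peptide exposure at room temperature, EC50 from logistic curve fit, native glucagon and GLP-1 as control peptides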
T1 construct: expressed in transfected cells; grown with Blasticidin and Hygromycin
T1 sequence (P47871 26-477): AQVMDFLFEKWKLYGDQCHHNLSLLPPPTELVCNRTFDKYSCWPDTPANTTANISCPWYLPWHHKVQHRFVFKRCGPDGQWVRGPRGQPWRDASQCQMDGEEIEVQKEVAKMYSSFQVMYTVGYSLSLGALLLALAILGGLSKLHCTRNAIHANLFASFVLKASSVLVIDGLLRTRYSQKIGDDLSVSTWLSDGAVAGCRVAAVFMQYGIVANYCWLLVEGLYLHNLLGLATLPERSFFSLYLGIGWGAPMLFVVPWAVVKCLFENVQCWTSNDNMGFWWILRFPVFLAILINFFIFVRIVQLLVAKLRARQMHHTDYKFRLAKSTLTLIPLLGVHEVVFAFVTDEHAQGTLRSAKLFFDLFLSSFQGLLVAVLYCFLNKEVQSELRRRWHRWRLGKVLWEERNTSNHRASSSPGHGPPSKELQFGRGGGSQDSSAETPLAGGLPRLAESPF
Experimental: as §1, §2, §3

[1] = Table 5, incretin peptides, cAMP, read-out: hGLP1R EC50

human GLP1R, sequence (P43220 24-463): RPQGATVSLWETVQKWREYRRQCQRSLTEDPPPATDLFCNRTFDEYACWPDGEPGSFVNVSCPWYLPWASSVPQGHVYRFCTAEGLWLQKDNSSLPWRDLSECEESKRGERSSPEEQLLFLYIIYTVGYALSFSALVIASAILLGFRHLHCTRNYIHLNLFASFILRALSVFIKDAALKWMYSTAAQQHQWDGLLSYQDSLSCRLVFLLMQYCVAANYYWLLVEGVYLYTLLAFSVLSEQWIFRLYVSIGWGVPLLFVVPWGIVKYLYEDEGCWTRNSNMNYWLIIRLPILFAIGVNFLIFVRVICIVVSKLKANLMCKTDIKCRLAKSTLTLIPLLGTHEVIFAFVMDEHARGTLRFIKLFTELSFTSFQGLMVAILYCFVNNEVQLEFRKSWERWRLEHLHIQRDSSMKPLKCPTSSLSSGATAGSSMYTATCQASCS

Structure (SMILES): CC(C)C[C@H](NC(=O)[C@H](Cc1ccc(O)cc1)NC(=O)[C@H](CCCCN)NC(=O)[C@H](CO)NC(=O)[C@H](Cc1ccc(O)cc1)NC(=O)[C@H](CC(=O)O)NC(=O)[C@H](CO)NC(=O)[C@@H](NC(=O)[C@H](Cc1ccccc1)NC(=O)[C@@H](NC(=O)CNC(=O)[C@H](CCC(N)=O)NC(=O)[C@@H](CO)NC(=O)[C@@H](N)Cc1c[nH]cn1)[C@@H](C)O)[C@@H](C)O)C(=O)N[C@@H](CC(=O)O)C(=O)N[C@@H](CCC(=O)O)C(=O)N[C@@H](CCCNC(=N)N)C(=O)N[C@@H](C)C(=O)N[C@@H](C)C(=O)N[C@@H](CCCCNC(=O)COCCOCCNC(=O)COCCOCCNC(=O)CC[C@H](NC(=O)CCCCCCCCCCCCCCCN=[N+]=[N-])C(=O)O)C(=O)N[C@@H](CC(=O)O)C(=O)N[C@@H](Cc1ccccc1)C(=O)N[C@H](C(=O)N[C@@H](CCC(N)=O)C(=O)N[C@@H](Cc1c[nH]c2ccccc12)C(=O)N[C@@H](CC(C)C)C(=O)N[C@@H](CC(C)C)C(=O)N[C@@H](CC(=O)O)C(=O)N[C@H](C(N)=O)[C@@H](C)O)C(C)C [PEP26]
- pEC50 (human GLP1R): 9.92
- pEC50 (human GCGR): 9.92
- GCGR/GLP1R ratio (human GCGR): 1.0

Structure (SMILES): CSCC[C@H](NC(=O)[C@H](CC(C)C)NC(=O)[C@H](Cc1c[nH]c2ccccc12)NC(=O)[C@H](CCC(N)=O)NC(=O)[C@@H](NC(=O)[C@H](Cc1ccccc1)NC(=O)[C@H](CC(=O)O)NC(=O)[C@H](CCC(N)=O)NC(=O)[C@H](C)NC(=O)[C@H](C)NC(=O)[C@H](CCCNC(=N)N)NC(=O)C(C)(C)NC(=O)[C@H](CC(=O)O)NC(=O)[C@H](CC(C)C)NC(=O)[C@H](Cc1ccc(O)cc1)NC(=O)[C@H](CCCCN)NC(=O)[C@H](CO)NC(=O)[C@H](CCCCN)NC(=O)[C@H](CC(=O)O)NC(=O)[C@H](CO)NC(=O)[C@@H](NC(=O)[C@H](Cc1ccccc1)NC(=O)[C@@H](NC(=O)CNC(=O)[C@H](CCC(N)=O)NC(=O)C(C)(C)NC(=O)[C@@H](N)Cc1c[nH]cn1)[C@@H](C)O)[C@@H](C)O)C(C)C)C(=O)N[C@@H](CC(N)=O)C(=O)N[C@H](C(=O)N[C@@H](CCCCN)C(=O)N[C@@H](CCC(N)=O)C(=O)N[C@@H](CCCCN=[N+]=[N-])C(N)=O)[C@@H](C)O [PEP72]
- pEC50 (human GLP1R; [1]): 10.40
- pEC50 (human GCGR; Table 5, incretin peptides, cAMP, read-out: hGCGR_EC50): 8.41
- GCGR/GLP1R ratio (human GCGR): 97.5

Structure (SMILES): CCCCCCCCCCCCCCCC(=O)N[C@@H](CCC(=O)N[C@@H](CCC(=O)NCCCC[C@H](NC(=O)[C@H](CC(=O)O)NC(=O)[C@H](CO)NC(=O)[C@@H](NC(=O)[C@H](Cc1ccccc1)NC(=O)[C@@H](NC(=O)CNC(=O)[C@H](CCC(N)=O)NC(=O)[C@@H](CO)NC(=O)[C@@H](N)Cc1c[nH]cn1)[C@@H](C)O)[C@@H](C)O)C(=O)N[C@@H](CO)C(=O)N[C@@H](CCCCN)C(=O)N[C@@H](Cc1ccc(O)cc1)C(=O)N[C@@H](CC(C)C)C(=O)N[C@@H](CC(=O)O)C(=O)N[C@@H](CO)C(=O)N[C@@H](CCCNC(=N)N)C(=O)N[C@@H](CCCNC(=N)N)C(=O)N[C@@H](C)C(=O)N[C@@H](Cc1c[nH]cn1)C(=O)N[C@@H](CC(=O)O)C(=O)N[C@@H](Cc1ccccc1)C(=O)N[C@H](C(=O)N[C@@H](CCCCN=[N+]=[N-])C(=O)N[C@@H](Cc1c[nH]c2ccccc12)C(=O)N[C@@H](CC(C)C)C(=O)N[C@@H](CC(C)C)C(=O)N[C@@H](CC(N)=O)C(=O)N[C@H](C(N)=O)[C@@H](C)O)C(C)C)C(=O)O)C(=O)O [PEP13]
- pEC50 (human GLP1R): 10.00
- pEC50 (human GCGR): 10.40
- GCGR/GLP1R ratio (human GCGR): 0.4

Structure (SMILES): CCCCCCCCCCCCCCCC(=O)N[C@@H](CCC(=O)N[C@@H](CCC(=O)NCCCC[C@H](NC(=O)[C@H](CC(=O)O)NC(=O)[C@H](CO)NC(=O)[C@@H](NC(=O)[C@H](Cc1ccccc1)NC(=O)[C@@H](NC(=O)CNC(=O)[C@H](CCC(N)=O)NC(=O)C(C)(C)NC(=O)[C@@H](N)Cc1c[nH]cn1)[C@@H](C)O)[C@@H](C)O)C(=O)N[C@@H](CO)C(=O)N[C@@H](CCCCN)C(=O)N[C@@H](Cc1ccc(O)cc1)C(=O)N[C@@H](CC(C)C)C(=O)N[C@@H](CC(=O)O)C(=O)N[C@@H](CCC(=O)O)C(=O)N[C@@H](CCCNC(=N)N)C(=O)N[C@@H](C)C(=O)N[C@@H](C)C(=O)N[C@@H](CCC(N)=O)C(=O)N[C@@H](CC(=O)O)C(=O)N[C@@H](Cc1ccccc1)C(=O)N[C@H](C(=O)N[C@@H](CCCCN=[N+]=[N-])C(=O)N[C@@H](Cc1c[nH]c2ccccc12)C(=O)N[C@@H](CC(C)C)C(=O)N[C@@H](CC(C)C)C(=O)N[C@@H](CC(=O)O)C(=O)NCC(=O)N[C@@H](CCCNC(=N)N)C(=O)NCC(N)=O)C(C)C)C(=O)O)C(=O)O [PEP2]
- pEC50 (human GLP1R): 10.52
- pEC50 (human GCGR): 9.96
- GCGR/GLP1R ratio (human GCGR): 3.7

Structure (SMILES): CCCCCCCCCCCCCCCC(=O)N[C@@H](CCC(=O)N[C@@H](CCC(=O)NCCCC[C@H](NC(=O)[C@H](CC(=O)O)NC(=O)[C@H](CO)NC(=O)[C@@H](NC(=O)[C@H](Cc1ccccc1)NC(=O)[C@@H](NC(=O)CNC(=O)[C@H](CCC(N)=O)NC(=O)C(C)(C)NC(=O)[C@@H](N)Cc1c[nH]cn1)[C@@H](C)O)[C@@H](C)O)C(=O)N[C@@H](CO)C(=O)N[C@@H](CCCCN)C(=O)N[C@@H](Cc1ccc(O)cc1)C(=O)N[C@@H](CC(C)C)C(=O)N[C@@H](CC(=O)O)C(=O)NC(C)(C)C(=O)N[C@@H](CCCNC(=N)N)C(=O)N[C@@H](C)C(=O)N[C@@H](C)C(=O)N[C@@H](CCC(N)=O)C(=O)N[C@@H](CC(=O)O)C(=O)N[C@@H](Cc1ccccc1)C(=O)N[C@H](C(=O)N[C@@H](CCC(N)=O)C(=O)N[C@@H](Cc1c[nH]c2ccccc12)C(=O)N[C@@H](CC(C)C)C(=O)N[C@@H](CC(C)C)C(=O)N[C@@H](CC(=O)O)C(=O)N[C@H](C(=O)N[C@@H](CCCCN)C(=O)N[C@@H](CCCCN=[N+]=[N-])C(N)=O)[C@@H](C)O)C(C)C)C(=O)O)C(=O)O [PEP19]
- pEC50 (human GLP1R): 9.47
- GCGR/GLP1R ratio (human GCGR): 1.4

Structure (SMILES): CCCCCCCCCCCCCCCC(=O)N[C@@H](CCC(=O)N[C@@H](CCC(=O)NCCCC[C@H](NC(=O)[C@H](CC(=O)O)NC(=O)[C@H](CO)NC(=O)[C@@H](NC(=O)[C@H](Cc1ccccc1)NC(=O)[C@@H](NC(=O)CNC(=O)[C@H](CCC(N)=O)NC(=O)[C@@H](CO)NC(=O)[C@@H](N)Cc1c[nH]cn1)[C@@H](C)O)[C@@H](C)O)C(=O)N[C@@H](CO)C(=O)N[C@@H](CCCCN)C(=O)N[C@@H](Cc1ccc(O)cc1)C(=O)N[C@@H](CC(C)C)C(=O)N[C@@H](CC(=O)O)C(=O)N[C@@H](CCC(=O)O)C(=O)N[C@@H](CCCNC(=N)N)C(=O)N[C@@H](C)C(=O)N[C@@H](C)C(=O)N[C@@H](CCC(N)=O)C(=O)N[C@@H](CCCCN=[N+]=[N-])C(=O)N[C@@H](Cc1ccccc1)C(=O)N[C@H](C(=O)N[C@@H](CCC(N)=O)C(=O)N[C@@H](Cc1c[nH]c2ccccc12)C(=O)N[C@@H](CC(C)C)C(=O)N[C@@H](CC(C)C)C(=O)N[C@@H](CC(=O)O)C(=O)N[C@H](C(N)=O)[C@@H](C)O)C(C)C)C(=O)O)C(=O)O [PEP1]
- pEC50 (human GLP1R; [1]): 10.52
- GCGR/GLP1R ratio (human GCGR): 0.5
